Assay results published in patent US20240182475A1 (Université de Lausanne, priority 2021, published 2024).
“Also recorded” adds a separate entry of the source.

Experiments:
ATDCS chondrocytes = assay: ATDCS chondrocyte mineralization (Alizarin red); assay type: cell-based; details: sCPP 24 h, different concentrations
Procedure: Alizarin red staining of ATDCS chondrocytes stimulated with sCPP for 24 h in DMEM+10% FBS in presence of different concentrations of compounds C5 and C6. The graphs show Alizarin red absorbance at 570-630 nm. Statistical analysis (in comparison to 0) was determined using one-way ANOVA with *p<0.05, **p<0.01, ***p<0.001, […].

[1] = system: WT murine primary chondrocytes; assay: Murine primary chondrocyte calcification (Alizarin red); assay type: cell-based, mouse; details: sCPP 24 h, DMEM+10% FBS, 50 uM
Procedure: (a) WT and Cse-deficient chondrocytes were incubated with a CSE activator (SU004, 50 μM) previously identified by high-through put screen, or with the equivalent volume of DMSO (0.1%) for 24 hours in calcification medium. STS 25 mM was used as a positive control for calcification inhibition. Calcium-containing crystals were stained with Alizarin red and quantified. (b) Cytotoxicity was assessed by LDH measurement and expressed as % over 100% cytotoxicity. (c) IL-6 secretion was measured by ELISA in supernatant of WT chondrocytes incubated with SU004 50 μM or STS 25 mM for 24 hours in calcification medium. (d) Primary human chondrocytes from 3 OA patients (P1, P2, P3) were incubated with SU004 50 μM, or with the equivalent volume of DMSO (0.1%) for 24 hours in calcification medium. Calcium-containing crystals were stained with Alizarin red and quantified. (e) Cytotoxicity was assessed by LDH measurement and expressed as % over 100% cytotoxicity. (f) IL-6 secretion was measured by ELISA in supernatant of human chondrocytes incubated for 24 hours with SU004 50 μM in calcification medium. *p<0.05, ** p<0.01, ****p<0.0001.
Primary murine chondrocytes were stimulated with secondary calciprotein particles (sCPP) for 24 h in DMEM+10% FBS in presence of C5 or C6 at 50 uM or vehicle (DMSO). Mineralization was analyzed by Alizarin red staining of the cells (A) and quantified (B). Statistical analysis was determined using one-way ANOVA with **p<0.01 and ***p<0.001.
Chondrocytes were isolated from 6 days old mice (Cse KO, Cse tg, Cbs KO and corresponding WT mice) as described previously (Nasi, So, et al. 2016). Tenocytes were isolated from 6 to 8 weeks old mice (Cse KO and WT) and by double digestion in Collagenase IV NB standard grade (Witec AG). […]
After incubation in calcification media, supernatant was collected for ELISA and LDH measurement, and cell monolayer was washed in PBS, fixed in 10% formol and crystal deposition analyzed through Alizarin red staining and quantified as previously described

MOVAS cells = assay: Cytotoxicity assay, LDH release; assay type: cell-based, mouse; details: at 2 uM
Procedure: A) Alizarin red staining of MOVAS cells stimulated with CPP for 24 h in DMEM+10% FBS in presence of different concentrations of compound 22401. […] The background (Alizarin red staining obtained with cells in the absence of CPP) was subtracted from all values. B) Percentage of cytotoxicity, as measured by LDH release, in MOVAS cells in the same conditions as A). Statistical analysis was determined using one-way ANOVA with *p<0.05, **p<0.01, ***p<0.001.
Measurement of lactate dehydrogenase (LDH) as a means of cytotoxicity assay was performed with using CytoTox-ONE Homogeneous Membrane Integrity Assay (Promega) according to the manufacturer's instructions. Values were calculated as percentage of cytotoxicity using the following formula: [(value in sample)−(background)]/[(value in Triton X-100-treated sample)−(background)]×100.

WT primary VSMC = assay: Primary vascular smooth muscle cell mineralization, wild type; assay type: cell-based, mouse; details: secondary CPP 24 h, 50 uM, listed as Z20
Procedure: (§1) Primary VSMC were isolated from wild-type (WT) or CSE-deficient (CSE ko) mice. A) Alizarin red staining of WT or CSE ko VSMC stimulated with secondary CPP for 24 h in DMEM+10% FBS and treated or not with 50 uM of compound Z20. […] Statistical analysis was determined using one-way ANOVA (compared to WT vehicle) with ***p<0.001, ****p<0.0001.

HaCaT cells = assay: Human keratinocyte line mineralization (Alizarin red); assay type: cell-based; details: secondary CPP 24 h, different concentrations; listed as Z20
Procedure: Immortalized human keratinocytes HaCaT cells were stimulated with secondary CPP and different concentrations of the compound Z20 for 24 h. Cells were then stained with Alizarin Red. […] Statistical analysis was determined using one-way ANOVA with *p<0.05, ***p<0.001.

CSE ko primary VSMC = assay: Primary vascular smooth muscle cell mineralization, CSE ko; assay type: cell-based, mouse; details: secondary CPP 24 h, 50 uM
Procedure: as §1

primary murine tenocytes = assay: Primary murine tenocyte mineralization (Alizarin red); assay type: cell-based, mouse; details: secondary CPP 24 h, 50 uM; listed as Z20
Procedure: A) Alizarin red absorbance at 570-630 nm of primary murine tenocytes stimulated with secondary CPP for 24 h in DMEM+10% FBS and treated or not with 50 uM of Z20. B) Percentage of cytotoxicity (LDH %) in tenocytes treated or not with Z20 for 24 h. Statistical analysis was determined using one-way ANOVA with ***p<0.001.
Chondrocytes were isolated from 6 days old mice (Cse KO, Cse tg, Cbs KO and corresponding WT mice) as described previously (Nasi, So, et al. 2016). Tenocytes were isolated from 6 to 8 weeks old mice (Cse KO and WT) and by double digestion in Collagenase IV NB standard grade (Witec AG). Chondrocytes were amplified in DMEM with 10% FBS and 1% Penicillin Streptomycin and used at P1. Tenocytes were amplified in αDMEM with 10% FBS, 0.2 mM L-ascorbic acid, 2-phosphate and 1% Penicillin Streptomycin and used at P1. For crystal formation analysis, cells were cultured for 14 days in calcification medium (BGJb (Gibco) medium with 10% FBS, 0.2 mM L-ascorbic acid, 2-phosphate, 20 mM β-glycerol phosphate and 1% Penicillin Streptomycin). Medium and stimulations were refreshed every 3 days of culture. Alternatively, in some experiments, cells were cultured for 24 h in medium supplemented with secondary calciprotein particles (CPP, final concentration equivalent to […] calcium) to induce calcification as previously described (Aghagolzadeh et al. 2017). […]

Cn1ncc2c(Nc3cnn(CC4CCCO4)c3)ncnc21 (stereo not shown) [Compound 8, N-{1-methyl-1H-pyrazolo[3,4-d]pyrimidin-4-yl}-1-[(oxolan-2-yl)methyl]-1H-pyrazol-4-amine]
Mineralization (Alizarin red absorbance 570-630 nm) (ATDCS chondrocytes): inhibit ATDCS mineralization in vitro in a dose dependent fashion | Mineralization (Alizarin red) [1]: inhibit primary murine chondrocyte mineralization | Cytotoxicity assay LDH release (% of cytotoxicity) (MOVAS cells): 15% at

CCn1cnc2c(Nc3cnn(CC4CCCO4)c3)ncnc21 (stereo not shown) [Compound 13]
Mineralization (Alizarin red, % over WT vehicle) (WT primary VSMC): significant inhibition; also recorded: inhibits primary vascular smooth muscle cell mineralization | Mineralization (Alizarin red absorbance 570-630 nm) (HaCaT cells): inhibited calcification; also recorded: inhibits human keratinocyte line mineralization | Mineralization (Alizarin red, % over WT vehicle) (CSE ko primary VSMC): no inhibition | Mineralization (Alizarin red absorbance 570-630 nm) (primary murine tenocytes): inhibited calcification; also recorded: inhibits primary murine tenocyte mineralization
